# Measured values: patent publication US11306081B2, “Phenylacetamides as inhibitors of rock” (BRISTOL-MYERS SQUIBB COMPANY, priority 2017, dated 2022)
# Target: ROCK2 (Homo sapiens (Human), UniProt O75116)
# Test: ROCK assay (LABCHIP 3000 peptide phosphorylation assay)
# Format: biochemical
# Conditions: 5 μM ATP, 1.5 μM peptide substrate, dose-response
# Outline: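 Rho kinase variants in 20 mM HEPES pH 7.5, 20 mM MgCl2, 0.015% Brij-35, 4 mM DTT, 5 μM ATP, 1.5 μM FITC-AHA-AKRRRLSSLRA-OH peptide; DMSO <2%. EDTA-stopped; phosphorylated/non-phosphorylated peptide separated by microfluidic LabChip readout. Dose-response inhibition curve-fitted to give IC50.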
# ROCK2, sequence (O75116 whole entry, species assumed): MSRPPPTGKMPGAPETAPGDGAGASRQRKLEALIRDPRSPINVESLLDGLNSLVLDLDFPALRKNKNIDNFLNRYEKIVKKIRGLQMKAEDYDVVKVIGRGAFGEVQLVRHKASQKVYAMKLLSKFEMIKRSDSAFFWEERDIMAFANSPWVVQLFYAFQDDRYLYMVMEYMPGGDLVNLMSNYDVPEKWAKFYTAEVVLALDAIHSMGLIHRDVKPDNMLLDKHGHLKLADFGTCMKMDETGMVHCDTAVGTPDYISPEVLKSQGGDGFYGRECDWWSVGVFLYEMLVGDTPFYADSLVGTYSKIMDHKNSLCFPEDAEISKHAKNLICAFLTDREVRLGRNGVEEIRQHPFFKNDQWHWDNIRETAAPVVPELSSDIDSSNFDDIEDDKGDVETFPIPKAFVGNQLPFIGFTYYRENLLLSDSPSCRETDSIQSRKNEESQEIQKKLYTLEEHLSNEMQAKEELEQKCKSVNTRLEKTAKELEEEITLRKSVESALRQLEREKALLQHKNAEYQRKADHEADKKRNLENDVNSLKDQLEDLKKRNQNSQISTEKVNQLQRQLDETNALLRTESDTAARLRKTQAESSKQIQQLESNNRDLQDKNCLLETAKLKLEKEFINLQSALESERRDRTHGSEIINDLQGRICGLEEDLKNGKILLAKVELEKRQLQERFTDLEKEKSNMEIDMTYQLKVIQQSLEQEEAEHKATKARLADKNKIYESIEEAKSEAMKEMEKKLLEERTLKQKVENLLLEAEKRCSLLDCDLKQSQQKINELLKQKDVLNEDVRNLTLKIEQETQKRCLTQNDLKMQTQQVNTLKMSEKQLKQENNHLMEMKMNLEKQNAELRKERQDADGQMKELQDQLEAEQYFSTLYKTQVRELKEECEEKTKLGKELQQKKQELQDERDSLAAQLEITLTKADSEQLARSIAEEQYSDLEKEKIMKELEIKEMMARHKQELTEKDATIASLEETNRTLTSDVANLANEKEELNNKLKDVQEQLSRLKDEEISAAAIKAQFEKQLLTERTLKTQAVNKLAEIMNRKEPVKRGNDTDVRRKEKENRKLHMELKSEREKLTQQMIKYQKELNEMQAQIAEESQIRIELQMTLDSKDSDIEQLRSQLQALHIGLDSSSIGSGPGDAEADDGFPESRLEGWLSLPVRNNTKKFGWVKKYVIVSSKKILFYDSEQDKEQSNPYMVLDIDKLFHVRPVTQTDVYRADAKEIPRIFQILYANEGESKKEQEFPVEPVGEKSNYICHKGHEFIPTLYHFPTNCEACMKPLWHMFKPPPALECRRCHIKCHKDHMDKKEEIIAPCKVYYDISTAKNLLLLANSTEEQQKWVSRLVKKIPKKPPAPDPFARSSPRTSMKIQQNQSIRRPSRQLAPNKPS
structure (smiles),measurement,value
"CC(C)(O)COc1ccc2c(c1)N(C(=O)Cc1ccc(Oc3ncccc3C(N)=O)c(F)c1)CC2 [Example 114, 2-(2-fluoro-4-(2-(6-(2-hydroxy-2-methylpropoxy)indolin-1-yl)-2-oxoethyl)phenoxy)nicotinamide]",IC50,162 nM
"Cn1nc(NC(=O)Cc2ccc(Oc3ncccc3C(N)=O)cc2)c2ccccc21 [Example 075, 2-(4-(2-((1-methyl-1H-indazol-3-yl)amino)-2-oxoethyl)phenoxy) nicotinamide]",IC50,534 nM
"Cc1sc(NC(=O)Cc2ccc(Oc3ncccc3C(N)=O)c(F)c2)nc1-c1ccc(F)cn1 [Example 014, 2-(2-fluoro-4-(2-((4-(5-fluoropyridin-2-yl)-5-methylthiazol-2-yl)amino)-2-oxoethyl)phenoxy)nic-otinamide]",IC50,96 nM
"Cc1nc(NC(=O)Cc2ccc(Oc3ncccc3C(N)=O)c(F)c2)sc1C [Example 098, 2-(4-(2-((4,5-dimethylthiazol-2-yl)amino)-2-oxoethyl)-2-fluorophenoxy)nico-tinamide]",IC50,31 nM
"NC(=O)c1cccnc1Oc1ccc(CC(=O)Nc2nc3ccc(F)cc3n2CC2CC2)cc1F [Example 168, 2-(4-(2-((1-(cyclopropyl-methyl)-6-fluoro-1H-benzo[d]-imidazol-2-yl)-amino)-2-oxo-ethyl)-2-fluoro-phenoxy)nicotin-amide]",IC50,18 nM
"COc1ccc2c(c1)CCc1sc(NC(=O)C(C)c3ccc(Oc4ncccc4C(N)=O)cc3)nc1-2 (stereo not shown) [Example 106, 2-(4-(1-((7-methoxy-4,5-dihydronaphtho[1,2-d]thiazol-2-yl)amino)-1-oxopropan-2-yl)phenoxy)nicotinamide]",IC50,262 nM
"NC(=O)c1cccnc1Oc1ccc(CC(=O)Nc2nnc(-c3ccccc3)s2)cc1 [Example 058, 2-(4-(2-oxo-2-((5-phenyl-1,3,4-thiadiazol-2-yl)amino)ethyl)phe-noxy)nicotinamide]",IC50,419 nM
"COCCn1c(NC(=O)Cc2ccc(Oc3ncccc3C(N)=O)c(F)c2)nc2ccccc21 [Example 155, 2-(2-fluoro-4-(2-((1-(2-methoxyethyl)-1H-benzo[d]-imidazol-2-yl)-amino)-2-oxo-ethyl)phenoxy)-nicotinamide]",IC50,1930 nM
"COC(=O)c1ccc2sc(NC(=O)Cc3ccc(Oc4ncccc4C(N)=O)cc3)nc2c1 [Example 065, methyl 2-(2-(4-((3-carbamoylpyridin-2-yl)oxy)phenyl)acet-amido)benzo[d]thi-azole-5-carboxylate]",IC50,109 nM
"NC(=O)c1cccnc1Oc1ccc(CC(=O)Nc2nc3ccccc3s2)cc1 [Example 049, 2-(4-(2-(benzo[d]thiazol-2-ylamino)-2-oxoethyl)phenoxy) nicotinamide]",IC50,194 nM
"NC(=O)c1cccnc1Oc1ccc(CC(=O)Nc2nc3ccc(F)cc3n2CC(F)F)cc1F [Example 166, 2-(4-(2-((1-(2,2-difluoroethyl)-6-fluoro-1H-benzo[d]-imidazol-2-yl)-amino)-2-oxo-ethyl)-2-fluoro-phenoxy)nicotin-amide]",IC50,24 nM
"NC(=O)c1cccnc1Oc1ccc(CC(=O)Nc2nc3cc(-c4cnn(C(F)F)c4)ccc3s2)cc1F [Example 029, 2-(4-(2-((5-(1-(difluoromethyl)-1H-pyrazol-4-yl)benzo[d]thiazol-2-yl)amino)-2-oxoethyl)-2-fluorophenoxy)nicotin-amide]",IC50,9 nM
"Cc1sc(NC(=O)Cc2ccc(Oc3ncccc3C(N)=O)c(F)c2)nc1-c1ccc(S(=O)(=O)C(C)C)cc1 [Example 048, 2-(2-fluoro-4-(2-((4-(4-(isopropylsulfonyl)phe-nyl)-5-methylthiazol-2-yl)amino)-2-oxoethyl)phenoxy)nico-tinamide]",IC50,112 nM
"NC(=O)c1cccnc1Oc1ccc(CC(=O)Nc2nnc(-c3cnccn3)s2)cc1F [Example 011, 2-(2-fluoro-4-(2-oxo-2-((5-(pyrazin-2-yl)-1,3,4-thiadiazol-2yl)amino)ethyl)phe-noxy) nicotinamide]",IC50,150 nM
"CP(C)(=O)c1ccc2c(c1)nc(NC(=O)Cc1ccc(Oc3ncccc3C(N)=O)c(F)c1)n2CC(F)(F)F [Example 148, 2-(4-(2-((5-(dimethyl-phosphoryl)-1-(2,2,2-trifluoroethyl)-1H-benzo[d]imidazol-2-yl)amino)-2-oxoethyl)-2-fluorophenoxy)-nicotinamide]",IC50,147 nM
"N#Cc1cccc(-c2csc(NC(=O)Cc3ccc(Oc4ncccc4C(N)=O)cc3)n2)c1 [Example 063, 2-(4-(2-((4-(3-cyanophenyl)thia-zol-2-yl)amino)-2-oxoethyl)phenoxy) nicotinamide]",IC50,339 nM
"NC(=O)c1cccnc1Oc1ccc(CC(=O)Nc2nnc(C(F)(F)F)s2)cc1F [Example 091, 2-(2-fluoro-4-(2-oxo-2-((5-(trifluoromethyl)-1,3,4-thiadiazol-2-yl)amino)ethyl)phe-noxy)nicotinamide]",IC50,874 nM
"COC(=O)c1ccc2nc(NC(=O)Cc3ccc(Oc4ncccc4C(N)=O)cc3)sc2c1 [Example 070, methyl 2-(2-(4-((3-carbamoylpyridin-2-yl)oxy)phenyl)acet-amido)benzo[d]thi-azole-6-carboxylate]",IC50,57 nM
"Cc1cc(-c2ccc3sc(NC(=O)Cc4ccc(Oc5ncccc5C(N)=O)c(F)c4)nc3c2)n(C)n1 [Example 028, 2-(4-(2-((5-(1,3-dimethyl-1H-pyrazol-5-yl)benzo[d]thiazol-2-yl)amino)-2-oxoethyl)-2-fluorophenoxy)nicotin-amide]",IC50,30 nM
"NC(=O)c1cccnc1Oc1ccc(CC(=O)Nc2nc3cc(-c4c[nH]nc4C(F)(F)F)ccc3s2)cc1F [Example 032, 2-(2-fluoro-4-(2-oxo-2-((5-(3-(trifluoromethyl)-1H-pyrazol-4-yl)benzo[d]thiazol-2-yl)amino)ethyl)phenoxy) nicotinamide]",IC50,89 nM
"NC(=O)c1cccnc1Oc1ccc(CC(=O)Nc2nc3ccc(C(F)(F)F)cc3n2CC2CC2)cc1Cl [Example 176, 2-(2-chloro-4-(2-((1-(cyclo-propylmethyl)-6-(trifluoro-methyl)-1H-benzo[d]-imidazol-2-yl)-amino)-2-oxo-ethyl)phenoxy)-nicotinamide]",IC50,16 nM
"NC(=O)c1cccnc1Oc1ccc(CC(=O)Nc2nc3ccccc3n2CCC(F)(F)F)cc1F [Example 154, 2-(2-fluoro-4-(2-oxo-2-((1-(3,3,3-trifluoropropyl)-1H-benzo[d]-imidazol-2-yl)-amino)ethyl)-phenoxy)nicotin-amide]",IC50,42 nM
"NC(=O)c1cccnc1Oc1ccc(CC(=O)Nc2nc3cc(C(F)(F)F)ccc3n2CC2CC2)cc1Cl [Example 177, 2-(2-chloro-4-(2-((1-(cyclo-propylmethyl)-5-(trifluoro-methyl)-1H-benzo[d]-imidazol-2-yl)-amino)-2-oxo-ethyl)phenoxy)-nicotinamide]",IC50,7 nM
"NC(=O)c1cccnc1Oc1ccc(CC(=O)Nc2nc3ccccc3n2CC2CCOCC2)cc1F [Example 159, 2-(2-fluoro-4-(2-oxo-2-((1-((tetra-hydro-2H-pyran-4-yl)methyl)-1H-benzo[d]imidazol-2-yl)amino)ethyl)-phenoxy)nicotin-amide]",IC50,2180 nM
"Cn1cc(-c2ccc3nc(NC(=O)Cc4ccc(Oc5ncccc5C(N)=O)c(F)c4)n(CC4CC4)c3c2)cn1 [Example 144, 2-(4-(2-((1-(cyclopropylmethyl)-6-(1-methyl-1H-pyrazol-4-yl)-1H-benzo[d]imidazol-2-yl)amino)-2-oxoethyl)-2-fluorophenoxy)nicotinamide]",IC50,5 nM
"Cc1sc(NC(=O)Cc2ccc(Oc3ncccc3C(N)=O)c(F)c2)nc1-c1cccc(F)n1 [Example 013, 2-(2-fluoro-4-(2-((4-(6-fluoropyridin-2-yl)-5-methylthiazol-2-yl)amino)-2-oxoethyl)phenoxy)nicotinamide]",IC50,21 nM
"Cc1sc(NC(=O)Cc2ccc(Oc3ncccc3C(N)=O)c(F)c2)nc1-c1cncnc1 [Example 041, 2-(2-fluoro-4-(2-((5-methyl-4-(pyrimidin-5-yl)thiazol-2-yl)amino)-2-oxoethyl)phenoxy)nico-tinamide]",IC50,175 nM
"COc1ccn2nc(NC(=O)Cc3ccc(Oc4ncccc4C(N)=O)c(Br)c3)nc2c1 [Example 119, 2-(2-bromo-4-(2-((7-methoxy-[1,2,4]triazolo[1,5-a]pyridin-2-yl)amino)-2-oxoethyl)phenoxy)nicotinamide]",IC50,6 nM
NC(=O)c1cccnc1Oc1ccc(CC(=O)Nc2nc3cc(F)ccc3n2CC2CC2)cc1F [Example 165],IC50,26 nM
"NC(=O)c1cccnc1Oc1ccc(CC(=O)Nc2nc3cc(F)ccc3n2CC2CC2)cc1Cl [Example 174, 2-(2-chloro-4-(2-((1-(cyclo-propylmethyl)-5-fluoro-1H-benzo[d]-imidazol-2-yl)-amino)-2-oxo-ethyl)phenoxy)-nicotinamide]",IC50,10 nM
"NC(=O)c1cccnc1Oc1ccc(CC(=O)Nc2cn3cc(Br)ccc3n2)cc1Cl [Example 009, 2-(4-(2-((6-bromoimidazo[1,2-a]pyridin-2-yl)amino)-2-oxoethyl)-2-chlorophenoxy)nicotinamide]",IC50,35 nM
"Cn1cc(-c2ccc3sc(NC(=O)Cc4ccc(Oc5ncccc5C(N)=O)c(F)c4)nc3c2)c(C2CC2)n1 [Example 026, 2-(4-(2-((5-(3-cyclopropyl-1-methyl-1H-pyrazol-4-yl)benzo[d]thiazol-2-yl)amino)-2-oxoethyl)-2-fluorophenoxy)nicotin-amide]",IC50,8 nM
"NC(=O)c1cccnc1Oc1ccc(CC(=O)Nc2nc3cc(F)ccn3n2)cc1F [Example 142, 2-(2-fluoro-4-(2-((7-fluoro-[1,2,4]triazolo[1,5-a]pyridin-2-yl)amino)-2-oxoethyl)phenoxy)nicotinamide]",IC50,72 nM
"COc1ccc2c(c1)nc(NC(=O)Cc1ccc(Oc3ncccc3C(N)=O)c(F)c1)n2CC(F)F [Example 120, 2-(4-(2-((1-(2,2-difluoroethyl)-5-methoxy-1H-benzo[d]imidazol-2-yl)amino)-2-oxoethyl)-2-fluorophenoxy)nicotinamide]",IC50,23 nM
